d = 2'-deoxy (DNA); r = 2'-OH (RNA)
Assays:
Format in all cases: cell-based, human
[1] = test system: PC-3 prostate carcinoma cells; experiment: Boyden chamber (Transwell) migration assay of PC-3 cells after TPTE-siRNA electroporation
TPTE mRNA = experiment: Knock-down of TPTE expression in PC-3 cells using RNAi, real-time RT-PCR; settings: PC-3 cells electroporated with 1 μM siRNA, 24 hours later, quantitative real-time RT-PCR
Description: PC-3 cells were electroporated using 1 μM siRNA specific for TPTE. After 24 h mRNA expression was quantified by real-time RT-PCR. Non-electroporated cells and cells electroporated with DsRed siRNA served as controls.
Expression of TPTE, MS4A12, PCSC and BRCO1 was also quantified using real-time PCR, however, the PCR products were detected using SYBR-Green as reporter dye. The reporter fluorescence of SYBR-Green is suppressed in solution and the dye is only active following binding to double-stranded DNA fragments. The increase of SYBR-Green fluorescence due to the specific amplification by means of GOI-specific primers following each PCR cycle is used for quantification. Quantification of expression of the target gene is performed absolute or relative to the expression of a control gene with constant expression in the tissues to be studied. LDHC expression was calculated by means of the ΔΔ-CT method (PE Biosystems, USA), after normalizing the samples to 18s RNA as “house-keeping” gene. The reactions were carried out in duplex mixtures and determined in triplicate. The QuantiTect SYBR-Green PCR kit (Qiagen, Hilden) was used according to the manufacturer's instructions. cDNA was synthesized using the High Capacity cDNA Archive Kit (PE Biosystems, USA) and hexamer primers according to the manufacturer's information. […]

TPTE expression = experiment: Methylation studies: induceability of TPTE expression by genomic demethylation, real-time RT-PCR; settings: 72 h, 2 μM or 10 μM
Description: Real-time RT-PCR analysis of the TPTE expression in the non-expressing cell lines BT549 and HCT116 following treatment of the cells with 2 μM and 10 μM 5-aza-2′-desoxycytidine, respectively, and in HCT116 cells which are deficient for DNA methyltransferase.
For investigating the induceability of TPTE expression by genomic demethylation, TPTE negative cell lines BT549 (Mamma-Ca) and HCT116 (Colon-Ca) were cultivated for 72 h with 2 μM or 10 μM 5-aza-2′-desoxycytidine. Then, the TPTE expression was quantified by means of real-time RT-PCR. Furthermore, TPTE expression was quantified in DNA methyl transferase (DNMT) deficient HCT116 cells. While DNMT1 (HCT116^DNMT1−/−) or DNMT3b (HCT116^ENMT3b−/−) deficient cells show an almost unchanged methylation pattern when compared to the parental cell line (HCT116^Par), cells in which both DNMTs have been simultaneously deleted (HCT116^DKO) are characterized by an almost complete demethylation of genomic DNA.
A quantitative real-time PCR (40 cycles, initial denaturation 15 min 95° C., 30 sec 94° C., 30 sec 62° C. and 30 sec 72° C.) was performed using specific primers (sense […] (SEQ ID NO: 823); antisense […] (SEQ ID NO: 28)) (FIG. 19). […] The ectopic expression of many known CT genes in tumors is induced by promoter demethylation. […]

| Compound | cell migration in the Boyden chamber assay ([1]; 48 h after electroporation with 1 μM TPTE-siRNA) | reduction of the migration rate ([1]; Transwell migration assay, compared to untreated cells and cells electroporated with irrelevant siRNA) [%] | decrease in TPTE expression (TPTE mRNA) [%] | induction of TPTE expression (TPTE expression; BT549 (Mamma-Ca) cells) | induction of TPTE expression (TPTE expression; HCT116 (Colon-Ca) cells) |
| --- | --- | --- | --- | --- | --- |
| TPTE-siRNA: siRNA duplex (SEQ ID NO: 826/827) targeting nucleotides 2043-2061 of the TPTE mRNA sequence (NM_013315) (chain 1 CCCUGCCACAUGUUCAUAUTT; chain 2 AUAUGAACAUGUGGCAGGGTT; sugars from the 5' end r19 d2, backbone not given here) | Relevant decrease of cell migration | 70 | 70 |  |  |
| Nc1ncn([C@H]2C[C@H](O)[C@@H](CO)O2)c(=O)n1 [5-aza-2′-desoxycytidine] |  |  |  | strong induction of TPTE expression | strong induction of TPTE expression |
